Details of data set [1]: method as in doi:10.1135/cccc20011375. The conditions noted are these: cited from earlier work.
For data set [2], the target named is SmCB1 (Schistosoma mansoni, UniProt Q8MNY2, T185A/T300A). The data set can be described thus: biochemical. The conditions noted are these: for Ki SmCB1: kinetic activity assay, triplicate, pH 5.5, 37 °C. From the text:
(§1) Enzymatic activity was monitored either fluorometrically with peptide–AMC substrates, which release 7-amino-4-methylcoumarin (AMC) as a fluorescent product, or spectrophotometrically with peptide–pNA substrates, which liberate p-nitroaniline (pNA). Reaction rates were obtained from the slopes of the linear progress curves and expressed as relative fluorescence units per second (RFU s^−1) or as absorbance units per second (AU s^−1). […] The standard errors of measurements refer to the non-linear regression analysis.
(§2) A non-glycosylated mutant of the SmCB1 zymogen was expressed in the yeast Pichia pastoris, activated by S. mansoni legumain and purified as described previously.[25,43,58] Kinetic measurements were performed in triplicate in 96-well microplates (100 μL assay volume) at 37 °C. […] Substrate hydrolysis was measured fluorometrically in an Infinite M1000 microplate reader (Tecan) at excitation and emission wavelengths of 360 and 465 nm, respectively. Inhibition assays for human cathepsins and cruzain are described in Supplemental Experimental Procedures.

Data set [3] deals with T1, human cathepsin B (Homo sapiens, UniProt P07858).
T1 construct: purchased Calbiochem
In words: Cathepsin B inhibition assay with chromogenic substrate Cbz-Arg-Arg-pNA. The conditions noted are these: kinetic activity assay; for Ki: read-out: Ki Cat B. Type of data set: biochemical.
Description: as §1
(§3) Enzymatic Assay Materials
(§4) Human cathepsin B was purchased from Calbiochem, and human cathepsins K, L, and S from Enzo. […]
(§5) Stock solutions of the […]
inhibitors and substrates were prepared in DMSO.
Cathepsin B Inhibition Assay
Kinetic measurements were performed in duplicate in cuvettes (1 mL assay volume) at 37 °C, as described.18-20 Human cathepsin B was activated by a 1:500 dilution with assay buffer (100 mM sodium phosphate, pH 6.0, 100 mM NaCl, 5 mM EDTA, 0.01% Brij 35) containing 5 mM DTT and then incubated at 37 °C for 30 min.
Into a cuvette containing 960 µL assay buffer, 5 µL of the chromogenic substrate Cbz-Arg-Arg-pNA, DMSO and inhibitor solution (15 µL) were pipetted. After addition of cathepsin B (20 µL), substrate hydrolysis was measured spectrophotometrically in a VARIAN/Bio-50/100 photometer at 405 nm for 20 min. […]

Data set [4] has as its system newly transformed schistosomula (NTS) of S. mansoni. In words: Phenotypic assay with newly transformed schistosomula (NTS). Type of data set: cell-based, Schistosoma mansoni. The conditions noted are these: for Severity score: scale 0 (no effect) to 4 (most severe); for anti-schistosomal effect against NTS (in words): 1 and 10 μM, three days. Here is the method:
Newly transformed schistosomula (NTS) of S. mansoni were prepared by mechanically transforming infective larvae (cercariae) as described previously.[47,57] NTS (200–300 parasites) were incubated in flat-bottomed 96-well plates in 200 μL of Basch medium 169[60] containing 5% FBS (ThermoFisher Scientific), 100 U mL^−1 penicillin and 100 μg mL^−1 streptomycin (ThermoFisher Scientific), at 5% CO2 and 37 °C.[61,62] Inhibitors were added at final concentration of 1 or 10 μM,[43,47] and changes in phenotype were observed every 24 h for up to 72 h. A constrained nomenclature of ‘descriptors’[49,57] is used to record the multiple and dynamic changes in movement, shape and translucence that the schistosome parasite is capable of (Fig. S1). These descriptors are then converted into an ordinal ‘severity score’ system from 0 (no effect) to 4 (maximum effect), which allows for the relative comparison of compound effects, as described previously.[63]

The subject of data set [5] is SmCB1. The data set can be described thus: biochemical. As to conditions: ratio of Ki values.
Description: as §1, §2

Data set [6] concerns the target T2, cruzain (Trypanosoma cruzi, UniProt P25779).
T2 construct: Recombinant cruzain, consisting of the catalytic domain without the C-terminal extension; made in house
In words: Cruzain inhibition assay. In kind it is biochemical. The conditions noted are these: duplicate measurements.
Description: as §1
Enzymatic Assay Materials […]
Recombinant cruzain, consisting of the catalytic domain without the C-terminal extension, was expressed and purified as described previously.16,17 All substrates were purchased from Bachem. Stock solutions of the inhibitors and substrates were prepared in DMSO. […]
Kinetic measurements were performed in duplicate with a fluorometric assay (Biotek SynergyTM HT) using Corning 96-well black microplates (200 µL assay volume) at 25 °C. Recombinant cruzain was incubated in 100 mM sodium acetate, pH 5.5, 5 mM DTT, 0.01 % Triton X-100 for 20 min, followed by an additional 2 min incubation with inhibitors before the reaction was started by the addition of the fluorogenic substrate Cbz-Phe-Arg-AMC. Substrate hydrolysis was measured for 5 min fluorometrically at excitation and emission wavelengths of 360 and 460 nm, respectively. […]

In data set [7] the target is T3, human cathepsin K (Homo sapiens, UniProt P43235).
T3 construct: purchased Enzo
T3 sequence (P43235 115-329): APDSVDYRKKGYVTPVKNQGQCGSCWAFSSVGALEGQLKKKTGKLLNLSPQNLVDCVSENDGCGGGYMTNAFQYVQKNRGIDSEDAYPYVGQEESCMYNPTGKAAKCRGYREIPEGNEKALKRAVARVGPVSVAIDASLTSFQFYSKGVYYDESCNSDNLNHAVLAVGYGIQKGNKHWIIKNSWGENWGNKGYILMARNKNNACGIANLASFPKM
The data set can be described thus: Cathepsin K inhibition assay. Type of data set: biochemical. As to conditions: duplicate measurements; read-out: Ki cat K.
Description: as §1, §3, §4, §5
inhibitors and substrates were prepared in DMSO. […]
Cathepsin K Inhibition Assay
Kinetic measurements were performed in duplicate in 96-well microplates (100 µL assay volume) at 25 °C, as described.18-20 Human recombinant cathepsin K was activated by a 1:100 dilution with assay buffer (100 mM sodium citrate, pH 5.0, 100 mM NaCl, 1 mM EDTA, 0.01% CHAPS) containing 5 mM DTT, and then incubated at 37 °C for 30 min. […] After addition of cathepsin K (2 µL), substrate hydrolysis was measured for 20 min fluorometrically in a FLUOSTAR Optima plate reader at excitation and emission wavelengths of 360 and 440 nm, respectively. […]

In data set [8] the target is T4, human cathepsin L (Homo sapiens, UniProt P07711).
T4 construct: Human isolated cathepsin L; purchased Enzo
In words: Cathepsin L inhibition assay. In kind it is biochemical. The conditions noted are these: duplicate measurements; read-out: Ki cat L. Here is the method: Cathepsin L Inhibition Assay
Kinetic measurements were performed in duplicate in cuvettes (1 mL assay volume) at 37 °C, as described.18-20 Human isolated cathepsin L was activated by a 1:100 dilution with assay buffer (100 mM sodium phosphate buffer, pH 6.0, 100 mM NaCl, 5 mM EDTA, 0.01% Brij 35) containing 5 mM DTT, and then incubated at 37 °C for 30 min. Into a cuvette containing 940 µL assay buffer, 10 µL of the chromogenic substrate Cbz-Phe-Arg-pNA, DMSO and inhibitor solution (10 µL) were pipetted. After the addition of cathepsin L (40 µL), substrate hydrolysis was measured for 20 min spectrophotometrically in a VARIAN/Bio-50/100 photometer at 405 nm. […]
Arg-AMC, cathepsin S and DMSO were 40 µM (= 0.74 × Km), 42 ng mL-1 and 2%, respectively. […]

For data set [9], the target named is T5, human cathepsin S (Homo sapiens, UniProt P25774).
T5 construct: purchased Enzo
In words: Cathepsin S inhibition assay. As to conditions: duplicate measurements; read-out: Ki cat S. Type of data set: biochemical. Here is the method: Cathepsin S Inhibition Assay
Kinetic measurements were performed in duplicate in 96-well microplates (100 µL assay volume) at 25 °C, as described.18-20 Human recombinant cathepsin S was activated by 1:100 dilution with assay buffer (100 mM sodium citrate, pH 6.0 containing 50 mM NaCl, 2 mM EDTA, 0.01% Triton X-100) containing 5 mM DTT, and then incubated at 37 °C for 60 min. Into a well containing 184 µL assay buffer, 0.8 µL of the fluorogenic substrate Cbz-Phe-Arg-AMC, DMSO and inhibitor solution (3.2 µL) were pipetted. After addition of cathepsin S (12 µL), substrate hydrolysis was measured for 20 min fluorometrically on a FLUOSTAR Optima plate reader at excitation and emission wavelengths of 360 and 440 nm, respectively. The final concentrations of Cbz-Phe-Arg-AMC, cathepsin S and DMSO were 40 µM (= 0.74 × Km), 42 ng mL-1 and 2%, respectively. […]

The values below come from PMC12538275, “Fat or flat? The impact of dipole moment vectors on non-covalent interactions between aromatic tags and macromolecules” (Inorganic Chemistry Frontiers, 2025).

A word on the Ki: it is a dissociation constant, usually derived from enzyme kinetics or from competition with a known ligand.

Where only a bound is given, the exact number is not on record here.

T4 sequence (P07711 114-333): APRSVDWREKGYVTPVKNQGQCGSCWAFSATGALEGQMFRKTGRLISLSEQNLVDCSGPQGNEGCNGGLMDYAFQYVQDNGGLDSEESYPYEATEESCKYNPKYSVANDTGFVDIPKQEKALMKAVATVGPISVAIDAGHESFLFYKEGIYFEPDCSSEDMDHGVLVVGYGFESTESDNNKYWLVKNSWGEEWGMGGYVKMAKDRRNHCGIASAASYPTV
T5 sequence (P25774 115-331): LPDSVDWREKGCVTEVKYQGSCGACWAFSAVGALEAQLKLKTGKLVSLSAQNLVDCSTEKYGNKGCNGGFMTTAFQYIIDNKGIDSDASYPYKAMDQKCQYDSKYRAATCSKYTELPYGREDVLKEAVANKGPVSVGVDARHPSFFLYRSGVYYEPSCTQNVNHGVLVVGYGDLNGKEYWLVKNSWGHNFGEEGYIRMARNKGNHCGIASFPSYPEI
T2 sequence (P25779 123-337 limits assumed): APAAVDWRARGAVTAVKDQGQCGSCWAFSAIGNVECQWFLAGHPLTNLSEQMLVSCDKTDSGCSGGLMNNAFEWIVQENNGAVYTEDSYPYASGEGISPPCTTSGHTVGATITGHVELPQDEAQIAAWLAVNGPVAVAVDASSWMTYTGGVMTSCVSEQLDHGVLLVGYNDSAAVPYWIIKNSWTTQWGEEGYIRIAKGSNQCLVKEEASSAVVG

On to 9-phenyl ortho-carborane, for which the dipole moment in data set [1] is reported as 5.0 D.
9-SH-closo-1,2-C2B10H11 [compound 2]: the “Ki SmCB1” value in data set [2] was “inactive”. The “Ki Cat B” value in [3] is “weak inhibition”. Also, the inhibitory constant (Ki) in data set [3] stood at 43.8 ± 5.6 µM. Also, the Severity score was determined as 0 in [4] (1 μM, 24 h); 0 in data set [4] (1 μM, 48 h); 0 in [4] (1 μM, 72 h); 0 in data set [4] (10 μM, 24 h); 0 in [4] (10 μM, 48 h); 0 in data set [4] (10 μM, 72 h). In addition, the “anti-schistosomal effect against NTS (in words)” value (“anti-schistosomal effect” below) in data set [4] was “ineffective”.
On to “closo-1,2-C2B10H12 [compound 1, reference compound]”, for which the “Ki SmCB1” value in data set [2] was “inactive”. Also, the “Ki Cat B” value in data set [3] was “inactive”. Also, the Ki in [3] is over 100 µM. The Severity score in [4] (1 μM, 24 h) worked out at 0; in data set [4] (1 μM, 48 h), 0; in data set [4] (1 μM, 72 h), 0; in data set [4] (10 μM, 24 h), 0; in data set [4] (10 μM, 48 h), 0; in [4] (10 μM, 72 h) it was 0. Moreover, the “anti-schistosomal effect” value in data set [4] is recorded as “ineffective”. Moreover, in data set [1], the dipole moment is listed as 4.5 D.
Turning to `N#CC1(NC(=O)[C@H](Cc2cccc(Cl)c2)NC(=O)CSc2ccccc2)CC1` [5a], the Ki stood at 14.3 ± 2.4 µM in [2]; 6.8 ± 0.5 µM in data set [3]; 0.46 ± 0.01 µM in data set [6]; 1.41 ± 0.26 µM in data set [7]; 0.37 ± 0.02 µM in data set [8]; 0.21 ± 0.03 µM in [9]. Besides, the “Selectivity Ki (cat B)/Ki (SmCB1)” value in data set [5] is recorded as 0.5. The Severity score came out at 0 in data set [4] (1 μM, 24 h); 0 in data set [4] (1 μM, 48 h); 0 in data set [4] (1 μM, 72 h); 0 in [4] (10 μM, 24 h); 0 in data set [4] (10 μM, 48 h); 0 in data set [4] (10 μM, 72 h). The “anti-schistosomal effect” value in data set [4] is reported as “ineffective”.
Turning to `CC(C)(C)OC(=O)N[C@@H](Cc1cccc(Cl)c1)C(=O)NC1(C#N)CC1` [compound 4], the inhibitory constant (Ki) in data set [2] stood at 27.1 ± 3.2 µM; in data set [3], 15.5 ± 1.7 µM; in data set [6], 0.75 ± 0.02 µM; in data set [7], 1.85 ± 0.23 µM; in data set [8], 0.25 ± 0.02 µM; in [9], 0.096 ± 0.009 µM. Moreover, the Severity score in [4] (1 μM, 24 h) turned out to be 0; in data set [4] (1 μM, 48 h), 0; in data set [4] (1 μM, 72 h) it was 0; in data set [4] (10 μM, 24 h), 0; in data set [4] (10 μM, 48 h), 0; in data set [4] (10 μM, 72 h), 0. The “anti-schistosomal effect” value in data set [4] was “ineffective”.
